Patent US20240302368A1, “MIGRATION OF HUMAN PERIPHERAL LEUKOCYTES IN RESPONSE TO CHEMOTACTIC FACTORS DURING PREGNACY” (The Governors of the University of Alberta, priority 2021, published 2024)

Assays:
[1] = target: T1, CXCR2 (Homo sapiens, UniProt P25025); assay: Term leukocyte chemotaxis towards TL homogenized extracts (LMA), CXCR2 inhibition; format: cell-based; details: increasing concentrations, FIG. 18
T1 construct: Whole blood is collected from a pregnant person into an EDTA-coated collection tube; endogenous in cells; host or cells: total peripheral leukocytes from pregnant women in term labour
T1 sequence (P25025 1-360): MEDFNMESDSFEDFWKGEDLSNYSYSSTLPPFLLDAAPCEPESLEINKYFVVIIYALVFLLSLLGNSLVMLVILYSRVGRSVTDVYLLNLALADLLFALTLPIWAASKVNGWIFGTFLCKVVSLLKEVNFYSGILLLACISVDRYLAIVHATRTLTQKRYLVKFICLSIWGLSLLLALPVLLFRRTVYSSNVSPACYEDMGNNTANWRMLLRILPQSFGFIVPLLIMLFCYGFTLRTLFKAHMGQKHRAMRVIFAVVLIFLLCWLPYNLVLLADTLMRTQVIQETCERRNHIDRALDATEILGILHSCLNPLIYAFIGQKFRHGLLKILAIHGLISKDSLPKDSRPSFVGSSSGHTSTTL
Procedure: (§1) Chemotaxis Assay: Chemoattractants (50 μL) are loaded into the lower wels of a simple, resin 3D printed, 3-well chemotaxis chamber and a polycarbonate filter with 3 μm pores (Neuro Probe Inc., MD, USA) is placed on top of the wells. A silicone gasket with holes for each well is positioned on top of the filter and the upper chamber is lowered onto the silicone gasket, creating a tight seal. Total leukocytes (100 μL) are loaded into the wells of the upper chamber and the apparatus is incubated at 90 min at 37 C in 5% CO2. The apparatus is then disassembled and leukocytes that have migrated through the filter into the lower chamber are quantified using a hemocytometer, flow cytometry or fluorescence spectrometry.
(§2) We will use SB 225002 (CXCR2 antagonist) and J 113863 (CCR1 antagonist), which are commercially available from RND Systems for around USD 200 each. A time course and kinetics experiment will be performed for each antagonist to optimize incubation length and concentration. TL leukocytes (n=6) will be inhibited with each antagonist using these optimized parameters, and the resulting number of leukocytes that undergo chemotaxis to TL chemoattractant in our LMA will be compared to control (i.e. non-treated leukocytes).

[2] = target: T2, CCR1 (Homo sapiens, UniProt P32246); assay: Term leukocyte chemotaxis towards TL homogenized extracts (LMA), CCR1 inhibition; format: cell-based; details: increasing concentrations, FIG. 18
T2 construct: Whole blood is collected from a pregnant person into an EDTA-coated collection tube; endogenous in cells; host or cells: total peripheral leukocytes from pregnant women in term labour
T2 sequence (P32246 1-355): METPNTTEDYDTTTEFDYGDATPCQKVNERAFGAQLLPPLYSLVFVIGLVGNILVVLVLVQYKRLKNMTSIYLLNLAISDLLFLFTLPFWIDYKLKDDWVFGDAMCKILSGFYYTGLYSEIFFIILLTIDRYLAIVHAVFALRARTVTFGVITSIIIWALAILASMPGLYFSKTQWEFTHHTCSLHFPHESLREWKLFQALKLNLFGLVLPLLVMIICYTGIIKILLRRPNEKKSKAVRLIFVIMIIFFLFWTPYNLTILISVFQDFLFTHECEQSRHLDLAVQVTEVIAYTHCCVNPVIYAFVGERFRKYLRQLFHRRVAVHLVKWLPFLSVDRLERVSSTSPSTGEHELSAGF
Procedure: as §1, §2

Row | term leukocyte migration [2] | Compound | term leukocyte migration [1]
1 | – | O=C(Nc1ccc([N+](=O)[O-])cc1O)Nc1ccccc1Br [SB225002] | decrease leukocyte migration
2 | decrease leukocyte migration | CC[N+]1(C/C2=C/CCCCCC2)CCC(NC(=O)C2c3cc(Cl)ccc3Oc3ccc(Cl)cc32)CC1.[I-] (centres unmarked) [J113863] | –
